One block for each molecule: values may come before it.
Key:
[1] = Surfactant screening for stable ACC HCl salt solutions (titration with potassium hydroxide); format: physicochemical; conditions: addition at about 0.5% w/w
Procedure: The solution was then titrated with potassium hydroxide to achieve a more basic solution. Due to the exothermic nature of the titration process, titration occurred in a water bath maintained at a temperature of 20° C.±5° C.

[2] = Chemical stability of ACC HCl in select non-aqueous solvents, 54 C, 3 weeks; format: physicochemical; conditions: for ACC HCl 3 weeks / ACC HCl % loss: 54 C, 3 weeks; for ACC HCl Initial: time 0
Procedure: Formulations were prepared with 14% w/w initial concentration of ACC HCl and […] Tween® 20 in each of the following solvents: 1,3 propanediol; ethylene glycol; diethylene glycol; dimethyl lactamide; and N-methyl pyrrolidone. Each formulation was then stored at 54 C for 3 weeks, which is the equivalent of storage for 3 years at room temperature. ACC HCl salt concentration was measured at time 0 and at 3 weeks.

[3] = Chemical stability of ACC HCl in select non-aqueous solvents, 5 or 54 C, 2 weeks; format: physicochemical; conditions: for % loss / ACC HCl 5 C., 2 weeks / ACC HCl 54 C., 2 weeks: 2 weeks; for ACC HCl Initial: time 0
Procedure: Formulations were prepared with 14% w/w initial concentration of ACC HCl and 2.5% w/w Tween® 20 in each of the following solvents: polyethylene glycol and propylene glycol. Each formulation was then stored at 5 or 54 C for 2 weeks, which is the equivalent of storage for 2 years at room temperature. ACC HCl salt concentration was measured at time 0 and at 2 weeks.

[4] = Stable non-aqueous ACC HCl salt formulation (solubility, stability at 5° C.); format: physicochemical; conditions: 13.6% ACC HCl salt, 84.4% propylene glycol, 2% Tween 20
Procedure: A formulation was prepared containing 13.6% ACC HCl salt, 84.4% propylene glycol and 2% Tween® 20.
Further, non-aqueous formulations of the present invention remained stable when placed at 5° C. Thus, specific non-aqueous formulations can stabilize ACC HCl salt.

[5] = Titration of ACC HCl salt solutions; format: physicochemical
Procedure: When ACC HCl salt was added to water to a concentration of 10% w/w ACC the pH was determined to be 1.0±0.3. The solution was then titrated with each of sodium hydroxide, N,N dimethyl ethanolamine, triethanolamine, choline hydroxide, ammonium hydroxide dimethyl amine, and triethyl tetramine to achieve more basic solutions.
Thus, ACC HCl salt solutions are inherently unstable at a pH range of 2.75 to 8.5.

[6] = Non-aqueous solvent screening (solubility of ACC HCl); format: physicochemical; conditions: about 21° C.
Procedure: ACC HCl salt was added at 1-gram increments to 1 liter of each of the solvents in Table 1 at about 21° C. while stirring until the salt would no longer solubilize.

cotton cotyledons = test: Cotton cotyledon bioefficacy assay: effect of solution pH and ACC form on ethylene production; conditions: for Ethylene Production: 250 ppm, 48 hours after spray
Gala apple = test: Apple fruitlet thinning assay; format: in vivo
Procedure: Formulations 1-3 were diluted with water to 408 ppm ACC HCl salt (i.e. molar equivalent to 300 ppm ACC free acid) and applied to Gala apple fruit when mean fruit diameter was 20 mm along with ACC free acid at 300 ppm. The apple plants were allowed to reach fruit set and set fruits were counted and compared to an untreated control. Fruit set was calculated as the number of fruits which set on a sample of 100 flower clusters.

[7] = Diethylene glycol with Tween 20
[8] = Dimethyl lactamide with Tween 20
[9] = N-methyl pyrrolidone with Tween 20
[10] = Polyethylene glycol with 2.5% w/w Tween 20, 5 C
[11] = Polyethylene glycol with 2.5% w/w Tween 20, 54 C
[12] = Propylene glycol with 2.5% w/w Tween 20, 5 C
[13] = Propylene glycol with 2.5% w/w Tween 20, 54 C

solution stability of ACC HCl salt solution [1]: further enhanced solution stability
SMILES: O=C(O)CN(CCN(CC(=O)O)CC(=O)O)CC(=O)O [EDTA, ethylenediaminetetraacetic acid]

SMILES: Cl.NC1(C(=O)O)CC1 [ACC HCl, 1-amino-1-cyclopropanecarboxylic acid hydrochloride salt]
ACC HCl 3 weeks ([2]; 1,3 propanediol with Tween 20): 13.9 % w/w | ACC HCl % loss ([2]; 1,3 propanediol with Tween 20): 1.7 % loss | ACC HCl Initial ([2]; 1,3 propanediol with Tween 20): 14.14 % w/w | ACC HCl 3 weeks [2, 7]: 13.8 % w/w | ACC HCl % loss [2, 7]: 1.4 % loss | ACC HCl Initial [2, 7]: ~14% w/w | ACC HCl 3 weeks [2, 8]: 13.5 % w/w | ACC HCl % loss [2, 8]: 2.9 % loss | ACC HCl Initial [2, 8]: 13.9 % w/w | ACC HCl 3 weeks ([2]; Ethylene glycol with Tween 20): 13.6 % w/w | ACC HCl % loss ([2]; Ethylene glycol with Tween 20): 2.9 % loss | ACC HCl Initial ([2]; Ethylene glycol with Tween 20): 14.0 % w/w | ACC HCl 3 weeks [2, 9]: 13.9 % w/w | ACC HCl % loss [2, 9]: 0.7 % loss | ACC HCl Initial [2, 9]: 14.0 % w/w | % loss [3, 10]: −0.3% | ACC HCl 5 C., 2 weeks [3, 10]: 14.20 % w/w | % loss [3, 11]: 2.5% | ACC HCl 54 C., 2 weeks [3, 11]: 13.81 % w/w | ACC HCl Initial ([3]; Polyethylene glycol with 2.5% w/w Tween 20): 14.16 % w/w | % loss [3, 12]: 0% | ACC HCl 5 C., 2 weeks [3, 12]: 14.10 % w/w | % loss [3, 13]: 6.7% | ACC HCl 54 C., 2 weeks [3, 13]: 13.15 % w/w | ACC HCl Initial ([3]; Propylene glycol with 2.5% w/w Tween 20): 14.10 % w/w | solubility in non-aqueous solvents [4]: soluble | pH of solution ([5]; ACC HCl salt added to water to 10% w/w ACC): 1.0±0.3 | pH at which all precipitates dissolve into solution ([5]; further titration with base): above 9.0 | Measured Solubility of ACC HCl ([6]; 1,3-propane diol): 25 % w/w | Measured Solubility of ACC HCl ([6]; Diethylene glycol monomethyl ether): 14 % w/w | Measured Solubility of ACC HCl ([6]; Diethylene glycol): 25 % w/w | Measured Solubility of ACC HCl ([6]; Dimethyl lactamide): 20 % w/w | Measured Solubility of ACC HCl ([6]; Dipropylene glycol): 8 % w/w | Measured Solubility of ACC HCl ([6]; Ethyl lactate): 14 % w/w | Measured Solubility of ACC HCl ([6]; Ethylene glycol): 34 % w/w | Measured Solubility of ACC HCl ([6]; Fatty alcohol ethoxylate): 14 % w/w | Measured Solubility of ACC HCl ([6]; Glycerin): 14 % w/w | Measured Solubility of ACC HCl ([6]; Monoacetin): 14 % w/w | Measured Solubility of ACC HCl ([6]; N-methyl-2-pyrrolidinone): 20 % w/w | Measured Solubility of ACC HCl ([6]; Polyethylene glycol 200): 21 % w/w | Measured Solubility of ACC HCl ([6]; Polyethylene glycol 400): 14 % w/w | Measured Solubility of ACC HCl ([6]; Polyethylene glycol 600): 14 % w/w | Measured Solubility of ACC HCl ([6]; Polypropylene glycol): 14 % w/w | Measured Solubility of ACC HCl ([6]; Propylene carbonate): <2 % w/w | Measured Solubility of ACC HCl ([6]; Propylene glycol): 27 % w/w | Measured Solubility of ACC HCl ([6]; The ester of 2-ethyl hexanol and natural lactic acid): 14 % w/w | Ethylene Production (cotton cotyledons; solution pH 2.5): 26.9 nL/g FW/hr | Ethylene Production (cotton cotyledons; solution pH 5.0): 16.5 nL/g FW/hr | more ethylene generated at pH 2.5 than at pH 5.0 (cotton cotyledons; same solution, pH 2.5 vs pH 5.0): 65%

SMILES: NC1(C(=O)O)CC1 [ACC free acid, 1-amino-1-cyclopropanecarboxylic acid]
Fruit set (Gala apple; 408 ppm ACC HCl salt (formulations) or 300 ppm ACC free acid, mean fruit diameter 20 mm): 70 fruit/100 flower clusters | reduction of fruit set (Gala apple; compared to untreated control): 20% | Ethylene Production (cotton cotyledons; solution pH 2.5): 31.1 nL/g FW/hr | Ethylene Production (cotton cotyledons; solution pH 5.0): 13.4 nL/g FW/hr
